{"source": "patent US9403806B1", "about": "“Cognition enhancing compounds and compositions, methods of making, and methods of treating” (NeuroSolis, Inc., priority 2010, dated 2016)", "key": {"[1]": {"system": "salivary gland inositol phosphate", "test": "In vivo tissue inositol phosphate signaling pathway activation, salivary gland", "design": "species or system Long Evans Hooded rats", "settings": "rat, Compound 3 1 mg/kg", "experimental": "(§1) Experimental compounds or drug substances were administered using standard techniques to Long Evans Hooded rats weighing 225 to 350 grams, and which had been pretreated with a subcutaneous injection of lithium chloride at a suitable dose between 3 and 10 mmoles per kg. At suitable times the animals were briefly anesthetized using 5% isoflurane and euthanized by decapitation. The brains and submaxillary salivary glands were rapidly dissected out, and the hippocampuses were dissected from the brains. The dissected tissues were homogenized in a suitable volume of ice-cold phosphate-buffered saline containing 10 mM lithium chloride, pH7.4, using a tissue homogenizer, and used immediately or frozen in aliquots at −80 deg C. for future use. The concentration of inositol-1-phosphate was determined in the homogenates using the IPOne TR-FRET assay (CisBio cat no 621PAPEB), following the manufacturer's instruction"}, "[2]": {"system": "hippocampal inositol phosphate", "test": "In vivo tissue inositol phosphate signaling pathway activation, hippocampus", "design": "species or system Long Evans Hooded rats", "settings": "rat, Compound 3 1 mg/kg, antagonist 0.1 mg/kg", "experimental": "as §1"}, "anesthetized rats": {"system": "anesthetized rats", "test": "Salivation after iontophoretic transdermal co-delivery of agonist and antagonist", "type": "in vivo, Long Evans Hooded rats", "settings": "anesthetized rat, one patch with 1 mg Compound 3 plus 0.01 mg antagonist", "experimental": "Experimental compounds and drug substances were delivered transdermally in rats using iontophoresis as follows. The fur was shaved from the backs of Long Evans Hooded rats weighing 225 to 325 grams, using electric clippers. Experimental compounds and drug substances were formulated at suitable concentrations an aqueous mixture of the following composition:\nThe polyvinyl alcohol/water was heated to 95 deg C. until it became clear, then the other constituents were added and mixed well. The mixture was introduced into suitable molds containing a disc-shaped cavity 2.2 cm diameter and 2.2 mm deep. Molds may be fabricated using two glass sheets separated by a silicone rubber sheet with suitable sized cavities and filling ports cut-outs. The molds were subject to 3 freeze-thaw cycles at −80 deg C. and 20 deg C. until a firm cryogel was obtained. The gels were separated from the molds and trimmed into a circular shape. The gel was placed in a silicone rubber casing with one face in contact with a circular silver foil anodic electrode (22 mm dia/250 microns thick), and the assembly was placed on the shaved skin of the rat such that the other face was in contact with the skin on one side of the back of the rat. The rubber casing formed a seal over and around the gel/electrode assembly. […] This was placed on the other side of the shaved back of the rat, the edges of the gel discs being about 20 mm apart at their nearest point. A DC voltage was applied across the two patches from a constant-current DC power supply and the voltage adjusted to obtain the desired current, such that the skin of the animal completed the electrical circuit.\nThe devices were placed on shaved backs of anesthetized rats and salivation was measured.\n(§2) The animals were placed slightly head-down on an inclined, heated ramp. Rectal temperature was monitored using a thermocouple and the temperature of the heating pad was adjusted manually to maintain normal body temperature. Saliva was collected from the mouth by absorption onto pre-weighed slips of filter paper. The filter paper was changed periodically and the amount of saliva was measured by weighing the filter paper slips"}, "anesthetized normal rats": {"system": "anesthetized normal rats", "test": "In vivo measurement of salivation", "design": "species or system Long Evans Hooded rats", "settings": "rats", "experimental": "as §2, with “Suitable doses of test compounds or drug substances were administered using standard techniques to Long Evans Hooded rats weighing 225 to 350 grams, or CD-1 mice weighing 30 to 50 grams, which had been anesthetized using 2-3.5%% of isoflurane in oxygen. The animals” for “The animals”"}, "in vitro [3]": {"test": "in vitro", "type": "in vitro ADME", "settings": "PAMPA, pH 7.4, PAMPA Permeability Coefficient (×10^6)", "method_in_brief": "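Compounds at 400 μM in 100 mM phosphate buffer pH 7.4 diffused through a filter pre-wetted with 20 mg/mL porcine brain polar lipid extract in dodecane into matching buffer, 24 h at room temperature. Donor, acceptor and stock samples were acidified with 1% TFA, quantified by LC/UV, and passive diffusion rates calculated from peak areas.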"}, "in vitro [4]": {"test": "in vitro", "settings": "PAMPA"}, "rats": {"system": "rats", "test": "In vivo muscarinic effects in rats after oral dosing", "from_the_text": "In these respects it was essentially the same as compound 3."}, "[5]": {"test": "Blood and brain concentrations (rats), oral gavage", "type": "in vivo, Long-Evans Hooded rats", "settings": "rats, oral dosing", "experimental": "Long-Evans Hooded rats (Charles River: male, 250-350 g) were dosed with solutions of test compounds in PBS by oral gavage. At the desired time after dosing, the animals were anesthetized with isoflurane, and then euthanized by cervical dislocation. Blood was obtained by cardiac puncture, transferred to a 1.5 mL microcentrifuge tube containing 15U Heparin, and the plasma recovered after centrifugation. Brains were dissected, weighed, immediately chilled to 4° C., and homogenized using a PowerGen 125 homogenizer in five volumes of ice-cold 2% formic acid. Proteins were precipitated from plasma and brain homogenate with two and five volumes respectively of ice-cold 2% formic acid and clarified by centrifugation. The supernatant was ultra-filtered by centrifugation through a 3K MWCO spin column (Pall Life Sciences), following the manufacturer's instructions. The concentration of compound in the ultra-filtrate was subjected to reverse-phase liquid chromatography using a 150×2.1 mm Agilent C8 reverse-phase column on a Shimadzu Prominence LC, eluting the compounds with a gradient of 2% to 50% of acetonitrile+0.1% formic acid for compound MI-50,382, or an isocratic flow of 2% acetonitrile+0.1% formic acid for the rest of the compounds listed. The concentration of the compound in the column effluent was measured using an Applied Biosystems API-3200 triple quadrupole mass spectrometer equipped with an electrospray sample injection system. The counts of the characteristic parent and product ions of each test compound were converted to concentration units by comparison with a standard calibration curve."}, "[6]": {"test": "Metabolites in serum and urine of dosed rats (LC-MS)", "type": "in vivo", "settings": "rats, dosed orally", "experimental": "Oxadiazoles disclosed herein as well as other oxadiazoles were investigated to determine the formation of metabolites. Animals were dosed, blood taken, serum prepared, serum proteins precipitated and ultrafiltrates prepared as described in Example 6. In separate experiments, urine was collected from rats for 16-24 hours after dosing, using standard metabolic cages. The urine container and collected urine were maintained at 4° C. Urine was lyophilized, taken back into water. The uftrafiltrate was prepared by adding formic acid to a final concentration of 1% to the urine samples, then filtered through a 0.2 um nylon membrane. The ultrafiltrate was subjected to LC-MS analysis. Instead of measuring the product ions in Q3, manual Q1 scans of the liquid chromatograph were undertaken, seeking parent ions of potential metabolites of the compounds. The criteria for identifying metabolites were as follows: (1) the ion should be present in the sera or urines of dosed rats, but not in sera or urines from non-dosed rats (2) the ion should be identifiable as a metabolic derivative of the dosed compound (e.g. loss of a functional chemical moiety, addition of a hydroxyl group or a glucuronic acid moiety, etc). Metabolites were determined not to be present if no compound meeting the above criteria could be detected in serum or urine."}, "[7]": {"biological_target": "T1, human muscarinic M1 receptors (Homo sapiens, UniProt P11229)", "T1 construct": "host or cells: A9L cells", "T1 sequence (P11229 1-460)": "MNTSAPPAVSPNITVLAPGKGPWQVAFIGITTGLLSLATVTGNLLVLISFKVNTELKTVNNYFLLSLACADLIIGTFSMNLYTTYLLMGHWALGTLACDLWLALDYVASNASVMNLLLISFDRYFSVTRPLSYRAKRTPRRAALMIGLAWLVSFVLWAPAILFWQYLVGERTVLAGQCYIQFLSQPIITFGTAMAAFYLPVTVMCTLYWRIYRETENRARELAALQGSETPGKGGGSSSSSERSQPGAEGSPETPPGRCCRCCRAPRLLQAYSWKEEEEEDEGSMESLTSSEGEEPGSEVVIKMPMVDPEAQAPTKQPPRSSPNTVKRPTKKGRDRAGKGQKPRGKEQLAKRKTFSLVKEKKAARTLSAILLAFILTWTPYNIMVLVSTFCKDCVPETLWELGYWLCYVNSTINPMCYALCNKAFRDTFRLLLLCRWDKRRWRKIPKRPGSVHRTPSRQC", "test": "IP production in A9L cells with human M1 receptors (IPOne TR-FRET), Example 28", "type": "cell-based", "method_in_brief": "(§3)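 A9L cells transfected with human M1 or M3 receptors, exposed to compound in medium with 10 mM LiCl and 10 mM HEPES (pH 7.4) for 60 min at 37 °C. IP in lysates measured by IPOne TR-FRET; efficacy expressed relative to full agonist (100%).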"}, "[8]": {"biological_target": "T2, human muscarinic M3 receptors (Homo sapiens, UniProt P20309)", "T2 construct": "host or cells: A9L cells", "T2 sequence (P20309 whole entry)": "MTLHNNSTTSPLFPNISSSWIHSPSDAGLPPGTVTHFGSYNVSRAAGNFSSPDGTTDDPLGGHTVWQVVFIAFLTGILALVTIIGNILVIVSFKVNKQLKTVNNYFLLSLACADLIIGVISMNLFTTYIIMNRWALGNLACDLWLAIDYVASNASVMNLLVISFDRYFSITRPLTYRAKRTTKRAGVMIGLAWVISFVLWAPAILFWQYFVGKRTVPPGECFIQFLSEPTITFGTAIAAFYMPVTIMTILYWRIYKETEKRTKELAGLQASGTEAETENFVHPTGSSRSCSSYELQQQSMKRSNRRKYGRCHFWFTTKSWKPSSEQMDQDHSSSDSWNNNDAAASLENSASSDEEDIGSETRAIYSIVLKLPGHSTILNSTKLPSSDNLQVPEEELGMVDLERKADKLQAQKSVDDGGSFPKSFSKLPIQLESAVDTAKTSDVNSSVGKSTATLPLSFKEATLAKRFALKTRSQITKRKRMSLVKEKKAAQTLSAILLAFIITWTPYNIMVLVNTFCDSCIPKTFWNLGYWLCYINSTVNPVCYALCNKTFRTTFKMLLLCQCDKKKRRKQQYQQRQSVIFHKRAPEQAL", "test": "IP production in A9L cells with human M3 receptors (IPOne TR-FRET), Example 28", "type": "cell-based", "method_in_brief": "as §3"}, "human FMO1 Supersomes": {"biological_target": "T3, human FMO1 Supersomes (Homo sapiens, UniProt Q01740)", "T3 construct": "purchased BD Biosciences 456241", "T3 sequence (Q01740 1-532)": "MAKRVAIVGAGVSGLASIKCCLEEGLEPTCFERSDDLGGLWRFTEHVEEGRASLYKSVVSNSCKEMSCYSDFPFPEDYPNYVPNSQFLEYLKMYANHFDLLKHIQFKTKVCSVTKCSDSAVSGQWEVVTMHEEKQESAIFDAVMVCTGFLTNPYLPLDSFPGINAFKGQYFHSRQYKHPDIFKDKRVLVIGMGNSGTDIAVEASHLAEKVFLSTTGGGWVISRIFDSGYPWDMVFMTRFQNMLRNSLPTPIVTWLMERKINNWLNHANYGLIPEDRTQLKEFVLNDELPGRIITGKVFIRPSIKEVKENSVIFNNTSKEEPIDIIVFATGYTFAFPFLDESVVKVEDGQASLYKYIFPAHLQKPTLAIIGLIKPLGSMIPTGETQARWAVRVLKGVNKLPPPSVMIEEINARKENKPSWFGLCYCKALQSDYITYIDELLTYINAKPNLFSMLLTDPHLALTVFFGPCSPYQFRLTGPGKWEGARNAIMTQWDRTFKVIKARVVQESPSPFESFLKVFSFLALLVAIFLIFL", "test": "Metabolism by flavin monoxygenase 1 (FMO1) Supersomes", "type": "in vitro ADME", "settings": "after 6 hours (FIG. 2)", "experimental": "[…] Aliquots were removed every 10 minutes, and 1% formic acid was added to halt the reaction. Samples were centrifuged, filtered through 0.2 micron spinfilter and the amount of each compound in the supernatants was quantitated using LC/MS/MS."}, "[9]": {"system": "pooled male human liver microsomes", "test": "Metabolism by human liver microsomes, Example 33", "type": "in vitro ADME", "settings": "6 hours incubation (FIGS. 4A, 4B)", "experimental": "Compounds were incubated with pooled male human liver microsomes (BD Biosciences, #452172) and an NADP-regenerating system in a phosphate buffer (pH 7.4) for a total of 6 hours. Aliquots were removed every 2 hours, and 1% formic acid was added to halt the reaction. Samples were centrifuged, filtered through 0.2 micron spinfilter and the amount of each compound in the supernatants was quantitated using LC/MS/MS."}, "[10]": {"settings": "percentage of maximal stimulation by carbachol"}, "[11]": {"settings": "potency relative to carbachol at its EC50, semi-quantitative"}}, "data": [{"compound": "C[N+]1(C)[C@@H]2C[C@@H](OC(=O)[C@H](CO)c3ccccc3)C[C@H]1[C@@H]1O[C@@H]12", "note": "[NMS]", "values": [{"measurement": "block of increase in salivary gland inositol phosphate caused by Compound 3", "setting": "[1]; antagonist 0.003 mg/kg", "value": "some breakthrough activation"}, {"measurement": "block of increase in salivary gland inositol phosphate caused by Compound 3", "setting": "[1]; antagonist 0.03 mg/kg to 0.01 mg/kg", "value": "nearly as effective as 0.1 mg/kg"}, {"measurement": "block of increase in salivary gland inositol phosphate caused by Compound 3", "setting": "[1]; antagonist 0.1 mg/kg (FIGS. 8A, 8B)", "value": "completely block"}, {"measurement": "effect on increase in inositol phosphate in the hippocampus caused by Compound 3", "setting": "[2]", "value": "does not inhibit"}, {"measurement": "reduction of salivation caused by transdermal iontophoretic delivery of Compound 3", "setting": "anesthetized rats", "value": "greatly reduced"}, {"measurement": "decrease in salivation caused by Compound 3", "setting": "anesthetized normal rats; Compound 3 0.3 mg/kg (FIG. 12)", "value": "dose-dependent decrease in salivation"}, {"measurement": "reduction in salivation caused by MCD-386", "setting": "anesthetized normal rats; MCD-386 1 mg/kg (FIG. 13)", "value": "dose-dependent reduction"}]}, {"compound": "Clc1cccc(Cl)c1N=C1NCCN1", "note": "[Clonidine, reference compound]", "values": [{"measurement": "Papp", "setting": "in vitro [3]", "value": 7.66, "unit": "×10⁻⁶ cm/s"}, {"measurement": "Papp", "setting": "in vitro [4]", "value": 7.95, "unit": "×10⁻⁶ cm/s"}]}, {"compound": "3-Methyl-5-(piperidin-3-yl)-1,2,4-oxadiazole [Compound 3]", "values": [{"measurement": "salivary flow after oral dosing", "setting": "rats; rats, dosed orally", "value": "produced copious salivary flow"}]}, {"compound": "[2H]C([2H])([2H])c1noc(C2CCCNC2)n1", "note": "(centres unmarked) [Compound 7, 3-D3-Methyl-5-(piperidin-3-yl)-1,2,4-oxadiazole]", "values": [{"measurement": "penetration into the brain after oral dosing", "setting": "[5]", "value": "penetrated into the brain"}, {"measurement": "plasma concentrations relative to compound 1 after oral dosing", "setting": "[5]; versus compound 1", "value": "approximately 2.4 times"}, {"measurement": "metabolites identified in plasma or urine", "setting": "[6]", "value": "No metabolites were identified"}, {"measurement": "muscarinic agonist activity in vivo", "setting": "rats; in vivo", "value": "demonstrated muscarinic agonist activity in vivo"}, {"measurement": "huM1/A9L Smax", "setting": "[7]; [10]", "value": 116, "unit": "%"}, {"measurement": "huM1/A9L ED50 relative to CCh*", "setting": "[7]; [11]", "value": "+ (+ potency 2-10x CCh)"}, {"measurement": "huM3/A9L Smax", "setting": "[8]; [10]", "value": 60, "unit": "%"}, {"measurement": "huM3/A9L ED50 relative to CCh*", "setting": "[8]; [11]", "value": "+/− (+/− potency 0.5-2x CCh)"}, {"measurement": "extent of metabolism in FMO Supersomes (in words)", "setting": "human FMO1 Supersomes", "value": "less than half metabolized"}, {"measurement": "metabolism in human liver microsomes (in words)", "setting": "[9]", "value": "metabolized significantly less in human liver microsomes than in rat liver microsomes"}]}]}
